Experimental data as given in patent publication US9096559B2, “4-carboxybenzylamino derivatives as histone deacetylase inhibitors” (Merck Sharp & Dohme Corp., priority 2007, dated 2015).

What follows are compounds tested against histone deacetylase, subtype 1 (HDAC1) (Homo sapiens (Human), UniProt Q13547) (assay: HDAC1-Flag in vitro deacetylation assay). Details: IP = inflection point; read-out: HDAC1 IP (inflection point).
Type: biochemical
Protocol: Novel compounds were tested for their ability to inhibit histone deacetylase, subtype 1 (HDAC1) using an in vitro deacetylation assay. The enzyme source for this assay was an epitope-tagged human HDAC1 complex immuno-purified from stably expressing mammalian cells. The substrate consisted of a commercial product containing an acetylated lysine side chain (BIOMOL Research Laboratories, Inc., Plymouth Meeting, Pa.). Upon deacetylation of the substrate by incubation with the purified HDAC1 complex, a fluorophore is produced that is directly proportional to the level of deacetylation.

Chain of histone deacetylase, subtype 1 (HDAC1) (Q13547 whole entry): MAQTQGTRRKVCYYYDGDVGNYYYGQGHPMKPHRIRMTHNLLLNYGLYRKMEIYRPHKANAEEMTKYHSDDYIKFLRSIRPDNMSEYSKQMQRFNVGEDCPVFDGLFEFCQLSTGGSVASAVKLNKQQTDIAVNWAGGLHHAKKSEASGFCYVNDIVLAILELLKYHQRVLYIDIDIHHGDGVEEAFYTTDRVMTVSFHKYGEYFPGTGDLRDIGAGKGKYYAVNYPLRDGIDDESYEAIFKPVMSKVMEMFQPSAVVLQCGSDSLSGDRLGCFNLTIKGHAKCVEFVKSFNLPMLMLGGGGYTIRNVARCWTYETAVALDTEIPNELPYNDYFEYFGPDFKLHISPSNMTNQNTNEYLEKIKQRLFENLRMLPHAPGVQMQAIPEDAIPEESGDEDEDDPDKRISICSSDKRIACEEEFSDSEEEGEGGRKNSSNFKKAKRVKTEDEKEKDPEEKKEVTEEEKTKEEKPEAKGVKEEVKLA

Row | IC50 [nM] | SMILES
1 | 65 | O=C(Nc1cc(-c2ccccc2)ccc1O)c1ccc(CN2CCNCC2)cc1 [Example 83, N-(4-hydroxy-3-biphenylyl)-4-(1-piperazinylmethyl)benzamide]
2 | 250 | O=C(Nc1cc(-c2ccccc2)ccc1O)c1ccc(CN2CCc3ccccc3C2)cc1 [Example 90, 4-(3,4-dihydro-2(1H)-isoquinolinylmethyl)-N-(4-hydroxy-3-biphenylyl)benzamide]
3 | 72 | O=C(Nc1cc(-c2ccccc2)ccc1O)c1ccc(CNCC2CC2)cc1 [Example 78, 4-{[(cyclopropylmethyl)amino]methyl}-N-(4-hydroxy-3-biphenylyl)benzamide]
4 | 2400 | CN1CCN(Cc2ccc(C(=O)Nc3cc(-c4ccccc4)ccc3O)cc2)CC1 [Example 100, N-(4-hydroxy-3-biphenylyl)-4-[(4-methyl-1-piperazinyl)methyl]benzamide]
5 | 690 | Cc1nc(-c2ccccc2)sc1CNCc1ccc(C(=O)Nc2cc(-c3ccccc3)ccc2O)cc1 [Example 74, N-(4-hydroxy-3-biphenylyl)-4-({[(4-methyl-2-phenyl-1,3-thiazol-5-yl)methyl]amino}methyl)benzamide]
6 | 4300 | COc1cccc(CNCc2ccc(C(=O)Nc3cc(-c4ccccc4)ccc3O)cc2)c1 [Example 117, N-(4-hydroxy-3-biphenylyl)-4-{[(3-methoxybenzyl)amino]methyl}benzamide]
7 | 340 | CN(CCc1ccccc1)Cc1ccc(C(=O)Nc2cc(-c3ccccc3)ccc2O)cc1 [Example 93, N-(4-hydroxy-3-biphenylyl)-4-{[methyl(2-phenylethyl)amino]methyl}benzamide]
8 | 89 | O=C(Nc1cc(-c2ccccc2)ccc1O)c1ccc(CNc2ccccc2)cc1 [Example 76, 4-(anilinomethyl)-N-(4-hydroxy-3-biphenylyl)benzamide]
9 | 2100 | O=C(Nc1cc(-c2ccccc2)ccc1O)c1ccc(CNCc2cccs2)cc1 [Example 98, N-(4-hydroxy-3-biphenylyl)-4-{[(2-thienylmethyl)amino]methyl}benzamide]
10 | 24 | CN(Cc1ccc(C(=O)Nc2cc(-c3ccccc3)ccc2O)cc1)Cc1cnn(C)c1 [Example 114, N-(4-hydroxy-3-biphenylyl)-4-({methyl[(1-methyl-1H-pyrazol-4-yl)methyl]amino}methyl)benzamide]
11 | 31 | CN(Cc1ccc(C(=O)Nc2cc(-c3ccccc3)ccc2O)cc1)Cc1cnccn1 [Example 113, N-(4-hydroxy-3-biphenylyl)-4-{[methyl(2-pyrazinylmethyl)amino]methyl}benzamide]
12 | 33 | O=C(Nc1cc(-c2ccccc2)ccc1O)c1ccc(CNCCn2cccn2)cc1 [Example 111, N-(4-hydroxy-3-biphenylyl)-4-({[2-(1H-pyrazol-1-yl)ethyl]amino}methyl)benzamide]
13 | 65 | CCN1CCC(CNCc2ccc(C(=O)Nc3cc(-c4ccccc4)ccc3O)cc2)CC1 [Example 102, 4-({[(1-ethyl-4-piperidinyl)methyl]amino}methyl)-N-(4-hydroxy-3-biphenylyl)benzamide]
14 | 280 | O=C(Nc1cc(-c2ccccc2)ccc1O)c1ccc(CN2CCCC2c2ccccn2)cc1 (stereo not shown) [Example 116, N-(4-hydroxy-3-biphenylyl)-4-{[2-(2-pyridinyl)-1-pyrrolidinyl]methyl}benzamide]
15 | 95 | CC(C)OCCCNCc1ccc(C(=O)Nc2cc(-c3ccccc3)ccc2O)cc1 [Example 86, N-(4-hydroxy-3-biphenylyl)-4-{[(3-isopropoxypropyl)amino]methyl}benzamide]
16 | 150 | O=C(Nc1cc(-c2ccccc2)ccc1O)c1ccc(CNC2CCCC2)cc1 [Example 77, 4-[(cyclopentylamino)methyl]-N-(4-hydroxy-3-biphenylyl)benzamide]
17 | 35 | CNCCN(C)Cc1ccc(C(=O)Nc2cc(-c3ccccc3)ccc2O)cc1 [Example 101, N-(4-hydroxy-3-biphenylyl)-4-({methyl[2-(methylamino)ethyl]amino}methyl)benzamide]
18 | 28 | NCc1ccc(C(=O)Nc2cc(-c3ccccc3)ccc2O)cc1 [Example 8, 4-(aminomethyl)-N-(4-hydroxybiphenyl-3-yl)benzamide]
19 | 43 | CN(Cc1ccc(C(=O)Nc2cc(-c3ccccc3)ccc2O)cc1)C1CCOC1 (stereo not shown) [Example 112, N-(4-hydroxy-3-biphenylyl)-4-{[methyl(tetrahydro-3-furanyl)amino]methyl}benzamide]
20 | 50 | CN(C)C1CCN(Cc2ccc(C(=O)Nc3cc(-c4ccccc4)ccc3O)cc2)C1 (stereo not shown) [Example 106, 4-{[3-(dimethylamino)-1-pyrrolidinyl]methyl}-N-(4-hydroxy-3-biphenylyl)benzamide]
21 | 9.9 | O=C(Nc1cc(-c2ccccc2)ccc1O)c1ccc(CNc2ccncc2)cc1 [Example 84, N-(4-hydroxy-3-biphenylyl)-4-[(4-pyridinylamino)methyl]benzamide]
22 | 33 | CN(CCc1ccncc1)Cc1ccc(C(=O)Nc2cc(-c3ccccc3)ccc2O)cc1 [Example 104, N-(4-hydroxy-3-biphenylyl)-4-({methyl[2-(4-pyridinyl)ethyl]amino}methyl)benzamide]

Row | IC50 [nM] | SMILES
23 | 27000 | O=C(Nc1cc(-c2ccccc2)ccc1O)c1ccc(CN2Cc3ccccc3C2)cc1 [Example 95, 4-(1,3-dihydro-2H-isoindol-2-ylmethyl)-N-(4-hydroxy-3-biphenylyl)benzamide]
24 | 100 | O=C(Nc1cc(-c2ccccc2)ccc1O)c1ccc(CNCCCc2ccncc2)cc1 [Example 109, N-(4-hydroxy-3-biphenylyl)-4-({[3-(4-pyridinyl)propyl]amino}methyl)benzamide]
25 | 18 | CNCCCN(C)Cc1ccc(C(=O)Nc2cc(-c3ccccc3)ccc2O)cc1 [Example 99, N-(4-hydroxy-3-biphenylyl)-4-({methyl[3-(methylamino)propyl]amino}methyl)benzamide]
26 | 160 | O=C(Nc1cc(-c2ccccc2)ccc1O)c1ccc(CNC2Cc3ccccc3C2)cc1 [Example 108, 4-[(2,3-dihydro-1H-inden-2-ylamino)methyl]-N-(4-hydroxy-3-biphenylyl)benzamide]
27 | 44 | CC(C)NCCNCc1ccc(C(=O)Nc2cc(-c3ccccc3)ccc2O)cc1 [Example 91, N-(4-hydroxy-3-biphenylyl)-4-({[2-(isopropylamino)ethyl]amino}methyl)benzamide]
28 | 32 | O=C(Nc1cc(-c2ccccc2)ccc1O)c1ccc(CNCc2cccnc2)cc1 [Example 81, N-(4-hydroxy-3-biphenylyl)-4-{[(3-pyridinylmethyl)amino]methyl}benzamide]
29 | 260 | O=C(Nc1cc(-c2ccccc2)ccc1O)c1ccc(CNCCNc2ccccc2)cc1 [Example 97, 4-{[(2-anilinoethyl)amino]methyl}-N-(4-hydroxy-3-biphenylyl)benzamide]
30 | 81 | COC(=O)c1ccc(-c2ccc(N)c(NC(=O)c3ccc(CNC(=O)OCc4cccnc4)cc3)c2)cc1 [Example 2, methyl 4′-amino-3′-[({4-[({[(pyridin-3-ylmethyl)oxy]carbonyl}amino)methyl]phenyl}carbonyl)amino]biphenyl-4-carboxylate]
31 | 31 | CCN(C)Cc1ccc(C(=O)Nc2cc(-c3ccccc3)ccc2O)cc1 [Example 94, 4-{[ethyl(methyl)amino]methyl}-N-(4-hydroxy-3-biphenylyl)benzamide]
32 | 91 | O=C(Nc1cc(-c2ccccc2)ccc1O)c1ccc(CNCCCN2CCCC2)cc1 [Example 82, N-(4-hydroxy-3-biphenylyl)-4-({[3-(1-pyrrolidinyl)propyl]amino}methyl)benzamide]
33 | 360 | O=C(Nc1cc(-c2ccccc2)ccc1O)c1ccc(CNCCOc2ccccc2)cc1 [Example 96, N-(4-hydroxy-3-biphenylyl)-4-{[(2-phenoxyethyl)amino]methyl}benzamide]
34 | 970 | O=C(Nc1cc(-c2ccccc2)ccc1O)c1ccc(CNCCc2ccccc2)cc1 [Example 71, N-(4-hydroxy-3-biphenylyl)-4-{[(2-phenylethyl)amino]methyl}benzamide]
35 | 180 | CN1CCC(CNCc2ccc(C(=O)Nc3cc(-c4ccccc4)ccc3O)cc2)C1 (stereo not shown) [Example 110]
36 | 1800 | O=C(Nc1cc(-c2ccccc2)ccc1O)c1ccc(CNCCc2ccc(Br)cc2)cc1 [Example 72, 4-({[2-(4-bromophenyl)ethyl]amino}methyl)-N-(4-hydroxy-3-biphenylyl)benzamide]
37 | 72 | NCCNCc1ccc(C(=O)Nc2cc(-c3ccccc3)ccc2O)cc1 [Example 107, 4-{[(2-aminoethyl)amino]methyl}-N-(4-hydroxy-3-biphenylyl)benzamide]
38 | 120 | CN(C)CCNCc1ccc(C(=O)Nc2cc(-c3ccccc3)ccc2O)cc1 [Example 80, 4-({[2-(dimethylamino)ethyl]amino}methyl)-N-(4-hydroxy-3-biphenylyl)benzamide]
39 | 220 | CC1CCN(Cc2ccc(C(=O)Nc3cc(-c4ccccc4)ccc3O)cc2)CC1 [Example 87, N-(4-hydroxy-3-biphenylyl)-4-[(4-methyl-1-piperidinyl)methyl]benzamide]
40 | 20 | O=C(NCc1ccc(C(=O)Nc2cc(-c3ccccc3)ccc2O)cc1)OCc1cccnc1 [Example 5, pyridin-3-ylmethyl[(4-{[(4-hydroxybiphenyl-3-yl)amino]carbonyl}phenyl)methyl]carbamate]
41 | 13 | CN(Cc1ccc(C(=O)Nc2cc(-c3ccccc3)ccc2O)cc1)c1ccncc1 [Example 103, N-(4-hydroxy-3-biphenylyl)-4-{[methyl(4-pyridinyl)amino]methyl}benzamide]
42 | 48 | O=C(Nc1cc(-c2ccccc2)ccc1O)c1ccc(CN2CCOCC2)cc1 [Example 85, N-(4-hydroxy-3-biphenylyl)-4-(4-morpholinylmethyl)benzamide]
43 | 100 | CC(C)CCNCc1ccc(C(=O)Nc2cc(-c3ccccc3)ccc2O)cc1 [Example 92, N-(4-hydroxy-3-biphenylyl)-4-{[(3-methylbutyl)amino]methyl}benzamide]
